5 compounds from patent publication US8835644B2, “Broad spectrum benzothiophene-nitrothiazolide and other antimicrobials” (University of Virginia Patent Foundation, priority 2009, dated 2014) can be followed below.

The test system of one test is C. jejuni. Put plainly: MIC testing by broth dilution, C. jejuni. In kind it is cell-based, Campylobacter jejuni. In outline: (§1)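 Compounds were diluted serially from 32 μg/ml to 0.06 in medium holding a standard inoculum, then visually scored at 24 h, and the lowest well without growth was recorded. Media were LB for E. coli, Trypticase Soy for S. epidermidis and Brain Heart Infusion for C. jejuni. C. difficile zones were measured anaerobically relative to NTZ.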
(In broth dilution the organism is exposed to a series of concentrations in liquid medium.)

In a further test the test system is S. epidermidis biofilm. The test can be described thus: S. epidermidis biofilm assay (activity tables). The class given is cell-based, Staphylococcus epidermidis. The method, boiled down: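 Overnight TSB cultures diluted to OD600 0.01 and grown static with compound (triplicate) at 37° C for 16 h; turbidity recorded for growth. Biofilm: washed wells ethanol-fixed, stained with 0.5% crystal violet, A570 read before and after 95% ethanol extraction; mean ± SD.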

Another test deals with E. coli biofilm. The test can be described thus: E. coli biofilm assay (activity tables). The class given is cell-based, Escherichia coli. In outline:
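After 24 h static culture at 37 °C in wells containing NTZ, strain 042 (1:100 inoculum) biofilm was quantified by 0.5% crystal violet absorbance at 570 nm. Planktonic growth was taken from turbidity or LB plate counts as cfu/ml; all runs triplicate, reported as mean and SD.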

In another test the test system is S. epidermidis. The test can be described thus: MIC testing by broth dilution, S. epidermidis plank. The class given is cell-based, Staphylococcus epidermidis. In outline:
as §1

The subject of test [1] is C. difficile. The test can be described thus: MIC by agar dilution, C. difficile. The class given is cell-based, Clostridium difficile. The method, then: A standard broth dilution protocol was used in 96 well microplates containing a standard dilution of the microorganism to be tested in 100 microliters of the appropriate medium. Appropriate medium: E. coli, LB medium; Staphylococcus strains, Trypticase Soy; and for H. pylori and C. jejuni, Brain Heart Infusion. The compounds to be tested were set at 32 μg/ml in 200 microliters in well one and then serially diluted to provide a range from 32 to 0.06. The wells were scored visually at 24 h. The well where there was no growth was recorded as the MIC. […]
(§2) Representative compounds of the invention were tested in a series of assays against a series of organisms as described above. […] The organisms tested include, C. difficile, H. pylori, C. jejuni, MRSA, S. epidermidis, and E. coli. S. epidermidis and E. coli were tested in the plank and biofilm assay. A disk diffusion assay was also used for C. difficile. Direct PFOR enzyme assays were also performed. All analogues and derivatives were not tested on every organism in every type of assay (the “-” in each table means that it was not tested).
Background: Agar dilution tests growth on a series of plates holding different concentrations.

In a further test the test system is E. coli. The test can be described thus: MIC testing by broth dilution, E. coli plank. In kind it is cell-based, Escherichia coli. The method, boiled down: as §1
The next test has as its system H. pylori. The test can be described thus: MIC testing by broth dilution, H. pylori. In kind it is cell-based, Helicobacter pylori. The method, boiled down:
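Broth dilution MIC determination against H. pylori: a standard inoculum in 100 microliters of Brain Heart Infusion medium was placed in 96 well microplates. Test compounds began at 32 μg/ml in 200 microliters in well one and were serially diluted over a 32 to 0.06 range. After 24 h, plates were scored by eye and the first well without growth was recorded as the MIC.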

The subject of test [2] is C. difficile. Put plainly: Disk diffusion (Kirby Bower), C. difficile. The class given is cell-based, Clostridium difficile. Particulars: for Disk Diff (%) C. difficile: Nitazoxanide = 100; for Disk Diffusion (%) C. difficile: zone of inhibited growth as relative ratio to the zone for NTZ. The method, boiled down: as §1
In general terms: In agar diffusion tests the substance spreads into inoculated agar from a disc or well.

The subject of a further test is MRSA. The test can be described thus: MIC testing by broth dilution, MRSA. The class given is cell-based, Staphylococcus aureus. In outline: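 Values are broth-dilution MICs, defined as the well showing no growth on visual reading after 24 h; the tested range was 32 to 0.06 μg/ml, in organism-specific media (LB, Trypticase Soy, Brain Heart Infusion). The C. difficile entries come instead from anaerobic Kirby-Bauer disk zones, normalised to NTZ.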

In test [3] the test system is PFOR (pyruvate ferredoxin oxidoreductase). Put plainly: Direct PFOR enzyme assay. The class given is biochemical. The method, then: as §2

Values after ≈ are worked out from the molar mass of the structure shown. Like-named read-outs stand apart in the source and are kept apart here.

Turning to `O=C(Nc1ncc([N+](=O)[O-])s1)c1sc2ccccc2c1Cl` [VPC161181], the MIC was determined as 5.9 µM (≈ 2 µg/mL) with C. jejuni (Campylobacter jejuni, Thiophene analogues table, read-out: MIC C. jejuni); 94.2 µM (≈ 32 µg/mL) with E. coli biofilm (Escherichia coli, biofilm, Thiophene analogues table, read-out: MIC E. coli Biofilm); 5.9 µM (≈ 2 µg/mL) with S. epidermidis (Staphylococcus epidermidis, planktonic, Thiophene analogues table, read-out: MIC S. epidermidis Plank); 11.8 µM (≈ 4.01 µg/mL) in the test with C. difficile [1] (Clostridioides difficile, Thiophene analogues table, read-out: MIC C. difficile); 94.2 µM (≈ 32 µg/mL) in the test with E. coli (Escherichia coli, planktonic, Thiophene analogues table, read-out: MIC E. coli Plank); 2.2 µM (≈ 0.748 µg/mL) in the test with H. pylori (Helicobacter pylori, Thiophene analogues table, read-out: MIC H. pylori). Besides, in the test with MRSA (Staphylococcus aureus, MRSA, Thiophene analogues table, read-out: MIC MRSA), the MIC is 2.9 µM (≈ 0.985 µg/mL). Besides, in the test with S. epidermidis biofilm (Thiophene analogues table), the “MIC S. epidermidis Biofilm” value worked out at 11.8 µM (≈ 4.01 µg/mL). Besides, the “Disk Diff (%) C. difficile” value in the test on C. difficile [2] (Thiophene analogues table) amounted to 72%.
For the compound `O=C(Nc1ncc([N+](=O)[O-])s1)c1ccoc1` [VPC16a1006, N-(5-Nitrothiazol-2-yl)furan-3-carboxamide], the MIC in the test on C. jejuni (Campylobacter jejuni, Furan analogues table, read-out: MIC C. jejuni) was determined as 12.5 µM (≈ 2.99 µg/mL); in the test on E. coli biofilm (Escherichia coli, biofilm, Furan analogues table, read-out: MIC E. coli Biofilm), 134 µM (≈ 32 µg/mL); with C. difficile [1] (Clostridioides difficile, Furan analogues table, read-out: MIC C. difficile) it was 33.4 µM (≈ 7.99 µg/mL); with E. coli (Escherichia coli, planktonic, Furan analogues table, read-out: MIC E. coli Plank), 134 µM (≈ 32 µg/mL); in the test with H. pylori (Helicobacter pylori, Furan analogues table, read-out: MIC H. pylori), 0.8 µM (≈ 0.191 µg/mL); in the test on MRSA (Staphylococcus aureus, MRSA, Furan analogues table, read-out: MIC MRSA) it was 50.2 µM (≈ 12 µg/mL). Further, the “PFOR inhibition relative to nitazoxanide (=100)” value in [3] (Furan analogues table) is recorded as 98%. Further, the “Disk Diff (%) C. difficile” value in the test on C. difficile [2] (Furan analogues table) was found to be 97 ± 3%.
For the compound `O=C(Nc1ncc([N+](=O)[O-])s1)C1CCCCC1` [VPC16a1010], the MIC stood at 11.4 µM (≈ 2.91 µg/mL) in the test with C. jejuni (broth dilution, Brain Heart Infusion, 24 h, read-out: MIC (μM) C. jejuni); 31.3 µM (≈ 7.99 µg/mL) in the test with E. coli biofilm (biofilm, read-out: MIC (μM) E. coli Biofilm); 31.3 µM (≈ 7.99 µg/mL) in the test with S. epidermidis (broth dilution, Trypticase Soy, 24 h, read-out: MIC (μM) S. epidermidis Plank); 62.6 µM (≈ 16 µg/mL) with C. difficile [1] (agar dilution, anaerobic, Wilkins Chalgrin agar, read-out: MIC (μM) C. difficile); 125.2 µM (≈ 32 µg/mL) with E. coli (broth dilution, LB medium, 24 h, read-out: MIC (μM) E. coli Plank); 0.7 µM (≈ 0.179 µg/mL) in the test on H. pylori (broth dilution, Brain Heart Infusion, 24 h, read-out: MIC (μM) H. pylori). Moreover, in the test with MRSA (broth dilution, Trypticase Soy, 24 h, read-out: MIC (μM) MRSA), the MIC is 125.2 µM (≈ 32 µg/mL). For the same compound, the “PFOR inhibition relative to nitazoxanide (=100)” value in test [3] worked out at 93%. Moreover, the “Disk Diffusion (%) C. difficile” value in the test with C. difficile [2] was 53 ± 3%.
With `O=C(Nc1ncc([N+](=O)[O-])s1)c1ccc([N+](=O)[O-])o1` [VPC16b1007], the MIC with C. jejuni (Furan analogues table, read-out: MIC C. jejuni) is on record as 7.0 µM (≈ 1.99 µg/mL); in the test with E. coli biofilm (biofilm, Furan analogues table, read-out: MIC E. coli Biofilm), 26.4 µM (≈ 7.5 µg/mL); in the test with S. epidermidis (planktonic, Furan analogues table, read-out: MIC S. epidermidis Plank), 28.1 µM (≈ 7.99 µg/mL); in the test on C. difficile [1] (Furan analogues table, read-out: MIC C. difficile), 28.2 µM (≈ 8.01 µg/mL); in the test on E. coli (planktonic, Furan analogues table, read-out: MIC E. coli Plank), 14.1 µM (≈ 4.01 µg/mL); in the test on H. pylori (Furan analogues table, read-out: MIC H. pylori) it was 21.1 µM (≈ 6 µg/mL). Moreover, the MIC with MRSA (Furan analogues table, read-out: MIC MRSA) is on record as 112.6 µM (≈ 32 µg/mL). In addition, in the test on S. epidermidis biofilm (Furan analogues table), the “MIC S. epidermidis Biofilm” value was 56.3 µM (≈ 16 µg/mL). The “Disk Diff (%) C. difficile” value in the test on C. difficile [2] (Furan analogues table) was determined as 102 ± 8%.
Consider `CCCCCC(=O)Nc1ncc([N+](=O)[O-])s1` [VPC16a1007, N-(5-Nitrothiazol-2-yl)hexanamide], for which the MIC in the test with C. jejuni (Campylobacter jejuni, broth dilution, Brain Heart Infusion, 24 h, read-out: MIC (μM) C. jejuni) was 5.5 µM (≈ 1.34 µg/mL); in the test on E. coli biofilm (Escherichia coli, read-out: MIC (μM) E. coli Biofilm), 132 µM (≈ 32 µg/mL); in the test on S. epidermidis (Staphylococcus epidermidis, broth dilution, Trypticase Soy, 24 h, read-out: MIC (μM) S. epidermidis Plank), 32.9 µM (≈ 8 µg/mL); in the test with C. difficile [1] (Clostridioides difficile, agar dilution, anaerobic, Wilkins Chalgrin agar, read-out: MIC (μM) C. difficile), 65.8 µM (≈ 16 µg/mL); in the test on E. coli (Escherichia coli, broth dilution, LB medium, 24 h, read-out: MIC (μM) E. coli Plank), 132 µM (≈ 32 µg/mL); with H. pylori (Helicobacter pylori, broth dilution, Brain Heart Infusion, 24 h, read-out: MIC (μM) H. pylori), 1.4 µM (≈ 0.341 µg/mL). In test [3], the “PFOR inhibition relative to nitazoxanide (=100)” value was found to be 123%. Moreover, the “Disk Diffusion (%) C. difficile” value in the test on C. difficile [2] was determined as 56.5 ± 0.5%.
